# Several values for one entry are separate records, joined by “and”; a condition that tells them apart may be missing. Equal entries are not always repeated.
# Tested on: Swiss mice, Sarcoma 180 sc, mean tumor weight T/C
# Test: NCI In Vivo Anticancer Drug Screen. Data for tumor model Sarcoma 180 (subcutaneous) in Swiss mice
# Conditions: endpoint: mean tumor weight, higher = larger tumour
# Method in brief: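 Transplantable tumors were established in mice, compound was given, then survival or tumor size was recorded. The treated value was divided by the vehicle-control value.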
# [1] = dose: 2.5 mg/kg/injection, schedule: Q01DX007 (sc), vehicle: steriod suspending solution
smiles,measurement,setting,value
c1ccc2nc3ccccc3c-2cc1,T/C,"dose: 62.5 mg/kg/injection, schedule: Q01DX007 (ip), vehicle: saline",118 % of control
same,T/C,"dose: 125.0 mg/kg/injection, schedule: Q01DX007 (ip), vehicle: saline",106 % of control
same,T/C,"dose: 250.0 mg/kg/injection, schedule: Q01DX007 (ip), vehicle: saline",113 % of control
same,T/C,"dose: 750.0 mg/kg/injection, schedule: Q01DX007 (ip), vehicle: saline",85 % of control
same,T/C,"dose: 1000.0 mg/kg/injection, schedule: Q01DX007 (ip), vehicle: saline",68 % of control
CCOC(=O)Sc1ncnc2nc[nH]c12,T/C,"dose: 1.7 mg/kg/injection, schedule: Q01DX007 (ip), vehicle: carboxymethylcellulose (CMC)",109 % of control
same,T/C,"dose: 3.5 mg/kg/injection, schedule: Q01DX007 (ip), vehicle: carboxymethylcellulose (CMC)",84 % of control
same,T/C,"dose: 7.0 mg/kg/injection, schedule: Q01DX007 (ip), vehicle: carboxymethylcellulose (CMC)",102 % of control
same,T/C,"dose: 14.0 mg/kg/injection, schedule: Q01DX007 (ip), vehicle: carboxymethylcellulose (CMC)",41 % of control
same,T/C,"dose: 28.0 mg/kg/injection, schedule: Q01DX007 (ip), vehicle: carboxymethylcellulose (CMC)",46 % of control
same,T/C,"dose: 44.0 mg/kg/injection, schedule: Q01DX007 (ip), vehicle: carboxymethylcellulose (CMC)",56 % of control
same,T/C,"dose: 56.0 mg/kg/injection, schedule: Q01DX007 (ip), vehicle: carboxymethylcellulose (CMC)",30 % of control
same,T/C,"dose: 66.0 mg/kg/injection, schedule: Q01DX007 (ip), vehicle: carboxymethylcellulose (CMC)",61 % of control
same,T/C,"dose: 100.0 mg/kg/injection, schedule: Q01DX007 (ip), vehicle: carboxymethylcellulose (CMC)",35 % of control
same,T/C,"dose: 112.0 mg/kg/injection, schedule: Q01DX007 (ip), vehicle: carboxymethylcellulose (CMC)",22 % of control
same,T/C,"dose: 150.0 mg/kg/injection, schedule: Q01DX007 (ip), vehicle: carboxymethylcellulose (CMC)",30 % of control
c1ccc2[nH]cnc2c1,T/C,"dose: 31.25 mg/kg/injection, schedule: Q#A X014 (ip), vehicle: carboxymethylcellulose (CMC)",52 % of control
same,T/C,"dose: 37.12 mg/kg/injection, schedule: Q01DX007 (ip), vehicle: carboxymethylcellulose (CMC)",84 % of control
same,T/C,"dose: 46.25 mg/kg/injection, schedule: Q01DX007 (ip), vehicle: carboxymethylcellulose (CMC)",103 % of control
same,T/C,"dose: 62.5 mg/kg/injection, schedule: Q#A X014 (ip), vehicle: carboxymethylcellulose (CMC)",95 % of control
same,T/C,"dose: 74.25 mg/kg/injection, schedule: Q01DX007 (ip), vehicle: carboxymethylcellulose (CMC)",76 % of control
same,T/C,"dose: 92.5 mg/kg/injection, schedule: Q01DX007 (ip), vehicle: carboxymethylcellulose (CMC)",94 % of control
same,T/C,"dose: 125.0 mg/kg/injection, schedule: Q#A X014 (ip), vehicle: carboxymethylcellulose (CMC)",84 % of control
same,T/C,"dose: 148.5 mg/kg/injection, schedule: Q01DX007 (ip), vehicle: carboxymethylcellulose (CMC)",76 % of control
same,T/C,"dose: 185.0 mg/kg/injection, schedule: Q01DX007 (ip), vehicle: carboxymethylcellulose (CMC)",89 % of control
same,T/C,"dose: 250.0 mg/kg/injection, schedule: Q#A X014 (ip), vehicle: carboxymethylcellulose (CMC)",51 % of control
same,T/C,"dose: 297.0 mg/kg/injection, schedule: Q01DX007 (ip), vehicle: carboxymethylcellulose (CMC)",62 % of control
O=c1[nH]cc(F)c(=O)[nH]1,T/C,"dose: 3.12 mg/kg/injection, schedule: Q#A X014 (ip), vehicle: carboxymethylcellulose (CMC)",83 % of control
same,T/C,"dose: 6.25 mg/kg/injection, schedule: Q#A X014 (ip), vehicle: carboxymethylcellulose (CMC)",100 % of control
same,T/C,"dose: 6.3 mg/kg/injection, schedule: Q#A X014 (ip), vehicle: carboxymethylcellulose (CMC)",83 % of control
same,T/C,"dose: 9.5 mg/kg/injection, schedule: Q#A X014 (ip), vehicle: carboxymethylcellulose (CMC)",48 % of control
same,T/C,"dose: 12.5 mg/kg/injection, schedule: Q#A X014 (ip), vehicle: carboxymethylcellulose (CMC)",90 % of control
same,T/C,"dose: 12.66 mg/kg/injection, schedule: Q#A X014 (ip), vehicle: carboxymethylcellulose (CMC)",39 % of control
same,T/C,"dose: 15.2 mg/kg/injection, schedule: Q01DX007 (ip), vehicle: carboxymethylcellulose (CMC)",73 % of control and 89 % of control
same,T/C,"dose: 19.0 mg/kg/injection, schedule: Q#A X014 (ip), vehicle: carboxymethylcellulose (CMC)",2 % of control
same,T/C,"dose: 25.0 mg/kg/injection, schedule: Q#A X014 (ip), vehicle: carboxymethylcellulose (CMC)",25 % of control
same,T/C,"dose: 25.3 mg/kg/injection, schedule: Q01DX007 (ip), vehicle: carboxymethylcellulose (CMC)",76 % of control
same,T/C,"dose: 25.33 mg/kg/injection, schedule: Q01DX007 (ip), vehicle: carboxymethylcellulose (CMC)",53 % of control
C=CCOc1ccc2c(c1)CC[C@@H]1[C@@H]2CC[C@]2(C)[C@@H](O)[C@@H](O)C[C@@H]12,T/C,"dose: 0.25 mg/kg/injection, schedule: Q#A X014 (sc), vehicle: steriod suspending solution",90 % of control
same,T/C,"dose: 0.5 mg/kg/injection, schedule: Q01DX007 (sc), vehicle: steriod suspending solution",106 % of control
same,T/C,"dose: 1.25 mg/kg/injection, schedule: Q01DX007 (sc), vehicle: steriod suspending solution",77 % of control
same,T/C,"dose: 1.25 mg/kg/injection, schedule: Q#A X014 (sc), vehicle: steriod suspending solution",68 % of control
same,T/C,[1],91 % of control
same,T/C,"dose: 2.5 mg/kg/injection, schedule: Q#A X014 (ip), vehicle: methylcellulose (MC)",84 % of control
same,T/C,"dose: 2.5 mg/kg/injection, schedule: Q#A X014 (sc), vehicle: steriod suspending solution",36 % of control
same,T/C,"dose: 10.0 mg/kg/injection, schedule: Q#A X014 (sc), vehicle: steriod suspending solution",60 % of control
CCCC(=O)OCC1OC(n2cnc3c(=S)nc[nH]c32)C(OC(=O)CCC)C1OC(=O)CCC (configuration not stated),T/C,"dose: 250.0 mg/kg/injection, schedule: Q01DX007 (ip), vehicle: carboxymethylcellulose (CMC)",36 % of control
CN(C)N=Nc1n[nH]nc1C(N)=O,T/C,"dose: 31.0 mg/kg/injection, schedule: Q01DX007 (ip), vehicle: carboxymethylcellulose (CMC)",70 % of control
same,T/C,"dose: 62.0 mg/kg/injection, schedule: Q01DX007 (ip), vehicle: carboxymethylcellulose (CMC)",84 % of control
same,T/C,"dose: 125.0 mg/kg/injection, schedule: Q01DX007 (ip), vehicle: carboxymethylcellulose (CMC)",43 % of control
Nc1nc2n[nH]nc2c(=O)[nH]1,T/C,"dose: 12.5 mg/kg/injection, schedule: Q01DX007 (ip), vehicle: other",118 % of control
same,T/C,"dose: 12.5 mg/kg/injection, schedule: Q#A X014 (ip), vehicle: other",101 % of control
same,T/C,"dose: 15.75 mg/kg/injection, schedule: Q01DX007 (ip), vehicle: other",78 % of control
same,T/C,"dose: 25.0 mg/kg/injection, schedule: Q01DX007 (ip), vehicle: other",85 % of control
same,T/C,"dose: 25.0 mg/kg/injection, schedule: Q#A X014 (ip), vehicle: other",68 % of control
same,T/C,"dose: 31.5 mg/kg/injection, schedule: Q01DX007 (ip), vehicle: carboxymethylcellulose (CMC)",109 % of control
same,T/C,"dose: 31.5 mg/kg/injection, schedule: Q01DX007 (ip), vehicle: other",69 % of control
same,T/C,"dose: 31.5 mg/kg/injection, schedule: Q01DX007 (ip), vehicle: water",43 % of control
same,T/C,"dose: 50.0 mg/kg/injection, schedule: Q01DX007 (ip), vehicle: other",70 % of control
same,T/C,"dose: 50.0 mg/kg/injection, schedule: Q#A X014 (ip), vehicle: other",38 % of control
same,T/C,"dose: 50.4 mg/kg/injection, schedule: Q01DX007 (ip), vehicle: other",84 % of control
same,T/C,"dose: 63.0 mg/kg/injection, schedule: Q01DX007 (ip), vehicle: carboxymethylcellulose (CMC)",58 % of control
same,T/C,"dose: 63.0 mg/kg/injection, schedule: Q01DX007 (ip), vehicle: other",54 % of control and 60 % of control
same,T/C,"dose: 63.0 mg/kg/injection, schedule: Q01DX007 (ip), vehicle: water",57 % of control
same,T/C,"dose: 84.0 mg/kg/injection, schedule: Q01DX007 (ip), vehicle: other",63 % of control
same,T/C,"dose: 94.5 mg/kg/injection, schedule: Q01DX007 (ip), vehicle: carboxymethylcellulose (CMC)",54 % of control
same,T/C,"dose: 94.5 mg/kg/injection, schedule: Q01DX007 (ip), vehicle: water",15 % of control
same,T/C,"dose: 100.0 mg/kg/injection, schedule: Q01DX007 (ip), vehicle: other",95 % of control and 116 % of control
same,T/C,"dose: 100.0 mg/kg/injection, schedule: Q#A X014 (ip), vehicle: other",64 % of control
same,T/C,"dose: 126.0 mg/kg/injection, schedule: Q01DX007 (ip), vehicle: carboxymethylcellulose (CMC)",39 % of control
same,T/C,"dose: 126.0 mg/kg/injection, schedule: Q01DX007 (ip), vehicle: other",33 % of control
same,T/C,"dose: 126.0 mg/kg/injection, schedule: Q01DX007 (ip), vehicle: water",18 % of control
same,T/C,"dose: 200.0 mg/kg/injection, schedule: Q01DX007 (ip), vehicle: other",70 % of control
same,T/C,"dose: 400.0 mg/kg/injection, schedule: Q01DX007 (ip), vehicle: other",52 % of control
C=CCOc1ccc2c(c1)CC[C@@H]1[C@@H]2CC[C@]2(C)[C@@H](O)[C@H](O)C[C@@H]12,T/C,[1],105 % of control
same,T/C,"dose: 5.0 mg/kg/injection, schedule: Q01DX007 (sc), vehicle: steriod suspending solution",120 % of control
same,T/C,"dose: 10.0 mg/kg/injection, schedule: Q01DX007 (sc), vehicle: steriod suspending solution",82 % of control

# Source: PubChem BioAssay AID342 (DTP/NCI, 2004)
